Test results published in patent publication US20090202519A1, “Compositions and methods for treating gram positive bacterial infection in a mammalian subject” (The Scripps Research Institute, priority 2005, published 2009).
In brackets after ≈: the same amount, converted by molar mass.

What was measured:
S. pyogenes = experiment: microbe, parasite or virus in culture; conditions: for bacteriostatic and bactericidal activity: S. pyogenes, in vitro; for MBC / MIC: Streptococcus pyogenes; for MBC: read-out: MBC (Minimum Bactericidal Concentration); for MIC: read-out: MIC (Minimum Inhibitory Concentration)
Protocol: (§1) Miller et al., Arch Dermatol 124:209-15, 1988; Wille and Kydonieus, Skin Pharmacol Appl Skin Physiol 16:176-87, 2003. To test the working hypothesis, a series of in vitro experiments were first performed in which the effect of each lipid was measured on the growth of S. pyogenes, S. aureus and E. coli.
(§2) Bacteria. S. aureus Xen8.1 (parental strain 8325-4), S. pyogenes Xen20 (derived from serotype M49, strain 591) and E. coli Xen14 (derived from EPEC WS2572) were obtained from Xenogen (Carnbury, N.J.)

S. aureus [1] = experiment: Minimum inhibitory and bactericidal concentration on S. aureus in vitro; assay type: cell-based, Staphylococcus aureus; conditions: for bacteriostatic and bactericidal activity: in vitro
Protocol: as §1, §2

S. aureus [2] = experiment: S. aureus skin infection in flake (flk/flk) mutant mice; assay type: in vivo, mouse; conditions: flake mutants; 100 μl of 100 μM every two days
Protocol: However, complete rescue of the phenotype was not achieved by this pharmacological approach.
A. Palmitoleate injection accelerates bacterial clearance in wild-type mice. Luminescence (expressed as a percentage of the initial inoculum) was measured in control (C57BL/6) mice inoculated with S. aureus (at day 0) and treated by vehicle (DMSO) or palmitoleate injections every two days (arrows). B. Picture of control (C57BL/6) mice 9 days after S. aureus infection treated by DMSO (top) or palmitoleate (bottom) injections. C. Histogram showing the size of the lesion measured at day 9 after the infection in control (B6) mice treated with DMSO or palmitoleate. ** indicates P value <0.01. D. Palmitoleate treatment in S. aureus-infected flake mice. The protocol is similar as in A, except that 100 μl injections of a 75 mM solution of palmitoleate were performed. E. Pictures of infected flake mice at day 12 after DMSO (top) or palmitoleate (bottom) treatment. F. Size of the lesion (determined at day 12) in infected flk mutants treated with DMSO or palmitoleate. * indicates P value <0.05.
Skin infection. […] Luminescence was monitored daily with a CCD camera (5 min exposure of the animals) and quantification was done with the IVIS program from Xenogen.

S. aureus [3] = experiment: S. aureus skin infection in wild-type (C57BL/6) mice, luminescence and wound size; assay type: in vivo, mouse
Protocol: To investigate the physiological relevance of this antimicrobial activity, wild-type mice were inoculated with S. aureus and treated the infected animals by repeated (every two days) subcutaneous injections of palmitoleate (100 μl of a 100 μM solution in DMSO), or DMSO alone at the site of infection. The results of this experiment are illustrated in FIGS. 6A and B. For both groups of mice (n=6 animals), luminescence is expressed as a percentage of the initial inoculum, determined 24 hours after infection. […] As a consequence of improved S. aureus elimination, the diameter of the ulcerative wound (measured at day 9) in lipid-treated animals is one fourth that observed in controls (FIG. 6C).
A. Palmitoleate injection accelerates bacterial clearance in wild-type mice. Luminescence (expressed as a percentage of the initial inoculum) was measured in control (C57BL/6) mice inoculated with S. aureus (at day 0) and treated by vehicle (DMSO) or palmitoleate injections every two days (arrows). […] Histogram showing the size of the lesion measured at day 9 after the infection in control (B6) mice treated with DMSO or palmitoleate. ** indicates P value <0.01. […] F. Size of the lesion (determined at day 12) in infected flk mutants treated with DMSO or palmitoleate. * indicates P value <0.05. […]

[4] = test system: Scd1 expression in peritoneal macrophages; experiment: Scd1 expression by RT-PCR in stimulated peritoneal macrophages; assay type: cell-based; conditions: wild-type mouse peritoneal macrophages, within 18 hours after stimulation
From the text: A. SignalScan analysis of the Scd1 promoter. NF-κB and ISRE (interferon-stimulated regulatory element) are shown. B. RT-PCR detection of Scd1 and β-actin transcripts in skin biopsies of non-infected controls (C57BL/6, lane 1) and Tlr2−/− (lane 4) animals or after infection by S. aureus (lanes 2 and 5) or E. coli (lane 3). PCR products after 30 and 40 cycles are shown. M, size standard. C. RT-PCR detection of Scd1 and β-actin transcripts in controls (0) and MALP-induced peritoneal macrophages isolated from wild-type mice after 2, 4, 8 and 18 h. D. Quantification of the Scd1/β-actin ratio.
Macrophages, which represent an ideal system in which to study TLR signaling, also express the Scd1 gene, as reported recently. Uryu et al., Biochem Biophys Res Commun 303:302-5, 2003. To determine whether isolated macrophages are capable of upregulating Scd1 and to determine the kinetics of the response, peritoneal macrophages isolated from wild-type mice were stimulated with, synthetic macrophage-activating lipopeptide (MALP-2, EMC microcollections GmbH, Germany), a known TLR2 agonist. Takeuchi et al., J Immunol 164:554-7, 2000. […]
Semi-quantitative RT-PCR. […] Hoebe et al., J Endotoxin Res 9:250-5, 2003. hSCD1 and hFADS2 expression SZ95 sebocytes was measured by semi-quantitative RT-PCR using the following oligonucleotides: […]

SZ95 sebocytes = experiment: SZ95 human sebocytes: IL-6/IL-8 ELISA and SCD1/FADS2 RT-PCR; assay type: cell-based; conditions: SZ95 cells
From the text: To corroborate potential relevance of inducible Scd1 expression in human skin defense against Gram-positive pathogens, the effect of MALP-2 was investigated on the immortalized human sebocyte cell line SZ95. Zouboulis et al., J. Invest Dermatol. 113:1011-1020, 1999. […] These observations were extended by monitoring the expression of the fatty acid desaturase2 (FADS2) gene. FADS2 encodes a protein with enzymatic properties similar to those of SCD1 and was recently shown to be deficient in a patient affected by a severe skin condition manifested by cheilosis, a hyperkeratotic rash over the arms and legs and perineal dermatitis. Williard et al., J. Lipid Res. 42:501-508, 2001.
A. IL-6 production is induced in SZ95 cells after MALP-2 treatment (50 ng/ml). […] B. Quantification of IL-8 in the same conditions as in A. C. RT-PCR detection of SCD1 and FADS2 expression 4 and 18 hours after LPS and MALP-2 stimulation. GAPDH expression was used as control. D. Quantification of the SCD1 and FADS2 signals measured in two independent experiments (+/− s.e.m) after normalization with the GAPDH signal.
Cell culture. SZ95 sebocytes were maintained in HSG-Med (Sebomed, Berlin, Germany) supplemented with 10% heat inactivated FCS, 5 ng/ml human epidermal growth factor, 1 mM CaCl2, 10^−5 M palmitic acid, 50 μg/ml gentamicin for 2, 4, 8 and 18 hours with/without 50 ng/ml MALP-2 or 100 ng/ml LPS and the supernatants were collected for IL6 and IL8 evaluation by ELISA. RNA was isolated from the 4- and 18-hour samples by the RNeasy Midi kit (Qiagen, Hilden, Germany) and purified by the RNase-Free DNase set (Qiagen) for RT-PCR.
Semi-quantitative RT-PCR. Wild-type and Tlr2^−/− mutant mice were depilated and infected by subcutaneous injection of S. aureus or E. coli (5×10^5 […]). After 24 h, the skin of the infected area was dissected and total RNA was extracted by the Trizol (Gibco) method. […] Hoebe et al., J Endotoxin Res 9:250-5, 2003. hSCD1 and hFADS2 expression SZ95 sebocytes was measured by semi-quantitative RT-PCR using the following oligonucleotides: […]

[5] = Staphylococcus aureus, average of 3 experiments

Compound: CCCCCCCC/C=C\CCCCCCCC(=O)O [Oleate, oleic acid]
- bacteriostatic and bactericidal activity (S. pyogenes): strong bacteriostatic and bactericidal activity
- MBC (S. pyogenes): 13.3 µM (≈ 3.76 µg/mL)
- MIC (S. pyogenes): 8.3 µM (≈ 2.34 µg/mL)
- MIC (S. aureus [1]; [5]): > 75 µM
- bacteriostatic and bactericidal activity (S. aureus [1]): strong bacteriostatic and bactericidal activity

Compound: CCCCCC/C=C\CCCCCCCC(=O)O [Palmitoleate, palmitoleic acid]
- bacterial growth (S. aureus [2]): marked reduction of bacterial growth between days 1 and 4
- bacteriostatic and bactericidal activity (S. pyogenes): strong bacteriostatic and bactericidal activity
- MBC (S. pyogenes): 10 µM (≈ 2.54 µg/mL)
- MIC (S. pyogenes): 10 µM (≈ 2.54 µg/mL)
- MBC (S. aureus [1]; [5]): 50 µM (≈ 12.7 µg/mL)
- MIC (S. aureus [1]; [5]): 36.6 µM (≈ 9.31 µg/mL)
- bacteriostatic and bactericidal activity (S. aureus [1]): strong bacteriostatic and bactericidal activity
- reduction of luminescence compared to vehicle-treated mice (S. aureus [3]; 9 days after S. aureus inoculation, s.c. 100 μl of 100 μM in DMSO every two days): 90%
- diameter of the ulcerative wound relative to controls (S. aureus [3]; measured at day 9, s.c. 100 μl of 100 μM every two days): one fourth

Compound: MALP-2
- increase of Scd1 expression [4]: 4 fold
- SCD1 transcription (SZ95 sebocytes; 4 hours after stimulation): up-regulated
- FADS2 expression (SZ95 sebocytes; 18 hours after stimulation): slightly but specifically induced
- IL-6 and IL-8 production (SZ95 sebocytes; MALP-2 50 ng/ml, LPS 100 ng/ml): increased IL-6 and IL-8 production
